Assays:
PRMT5 [1] = molecular target: T1, PRMT5 (Homo sapiens, UniProt O14744); test: PRMT5 IC50 assay with no cofactor; type: biochemical
T1 construct: purchased Viva (custom protein)
Outline: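 Values reflect IC50 (μM) on human PRMT5 under three cofactor states. Selectivity is derived as the quotient of SAM-state Ki over MTA-state Ki, with each Ki obtained from its IC50.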

PRMT5 [2] = molecular target: T1, PRMT5; test: PRMT5 IC50 assay in the presence of MTA as cofactor; type: biochemical; conditions: for IC50: PRMT5, MTA as cofactor
Outline: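 Potency against PRMT5 is compared across cofactor states, where IC50 equals Ki×1.5 with SAM present and Ki×13.5 with MTA present.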

HAP1 MTAP-deleted = test: SDMA in-cell western assay, HAP1 MTAP-deleted cell line; type: cell-based; conditions: for IC50: Homo sapiens, HAP1 MTAP-deleted cell line; for MTAP Intact/Deleted Ratio: IC50 ratio HAP1 MTAP-intact / HAP1 MTAP-deleted
Outline: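 Readout is cellular SDMA signal by in-cell western, with IC50 values derived from it. The cells are MTAP-null HAP1, matched to an isogenic MTAP-intact HAP1 line.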

HAP1 MTAP-intact = test: SDMA in-cell western assay, HAP1 MTAP-intact cell line; type: cell-based; conditions: Homo sapiens
Outline: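 IC50 values come from SDMA in-cell western staining of HAP1 cells. The MTAP-intact line carries endogenous MTAP, while its MTAP-deleted counterpart lacks MTAP entirely. A selectivity ratio of at least 3 fold marks a compound as MTAP-selective.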

PRMT5 [3] = molecular target: T1, PRMT5; test: PRMT5 IC50 assay in the presence of SAM as cofactor; type: biochemical
Outline: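 IC50 values were measured against human PRMT5 with SAM, with MTA, or with no cofactor. Ki was derived from IC50 as Ki=IC50/1.5 with SAM and Ki=IC50/13.5 with MTA, and the Ki(SAM)/Ki(MTA) ratio was then taken.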

[4] = ratio between Ki in the presence of SAM and Ki in the presence of MTA
[5] = ratio between the Ki in the presence of SAM and the Ki in the presence of MTA

T1 sequence (O14744 whole entry): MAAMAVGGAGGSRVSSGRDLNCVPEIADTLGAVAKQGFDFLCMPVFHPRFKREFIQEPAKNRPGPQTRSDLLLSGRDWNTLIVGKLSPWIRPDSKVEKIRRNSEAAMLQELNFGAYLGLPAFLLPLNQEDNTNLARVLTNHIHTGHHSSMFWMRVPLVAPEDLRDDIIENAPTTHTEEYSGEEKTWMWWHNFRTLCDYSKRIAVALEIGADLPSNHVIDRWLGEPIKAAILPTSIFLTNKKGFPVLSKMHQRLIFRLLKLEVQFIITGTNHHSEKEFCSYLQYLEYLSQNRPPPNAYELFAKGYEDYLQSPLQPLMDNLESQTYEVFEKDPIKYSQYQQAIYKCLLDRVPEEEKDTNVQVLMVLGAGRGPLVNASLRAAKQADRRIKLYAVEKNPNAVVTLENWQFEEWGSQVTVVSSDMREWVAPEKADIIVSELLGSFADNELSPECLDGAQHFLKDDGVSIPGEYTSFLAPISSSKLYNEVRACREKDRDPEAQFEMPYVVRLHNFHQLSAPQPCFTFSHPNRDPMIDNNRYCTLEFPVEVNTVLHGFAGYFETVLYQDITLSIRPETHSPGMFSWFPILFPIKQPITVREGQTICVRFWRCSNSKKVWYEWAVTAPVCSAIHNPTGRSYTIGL
T1 sequence (Q9BQA1 whole entry partner): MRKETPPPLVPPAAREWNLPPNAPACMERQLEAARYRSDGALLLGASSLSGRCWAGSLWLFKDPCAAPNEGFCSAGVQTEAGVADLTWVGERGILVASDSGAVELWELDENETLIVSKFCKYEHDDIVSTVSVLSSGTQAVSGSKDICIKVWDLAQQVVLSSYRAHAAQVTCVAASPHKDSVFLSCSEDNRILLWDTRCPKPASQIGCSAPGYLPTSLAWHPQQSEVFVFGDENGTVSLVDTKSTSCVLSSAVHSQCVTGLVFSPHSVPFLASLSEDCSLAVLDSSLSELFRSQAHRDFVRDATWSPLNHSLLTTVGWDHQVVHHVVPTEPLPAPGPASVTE

SMILES	IC50 (PRMT5 [1]; read-out: No Co-factor IC50)	IC50 (PRMT5 [2])	SAM/MTA Ratio (PRMT5 [2]; [4])	IC50 (HAP1 MTAP-deleted)	MTAP Intact/Deleted Ratio (HAP1 MTAP-deleted)	IC50 (HAP1 MTAP-intact)	IC50 (PRMT5 [3])	IC50 (PRMT5 [1])	SAM/MTA Ratio (PRMT5 [2]; [5])
O=C(NC[C@H](O)CN1CCc2c(ccc(OCc3cnco3)c2Cl)C1)c1ccnc(NC2CCCCC2)c1 [Compound 420, (S)—N-(3-(5-chloro-6-(oxazol-5-ylmethoxy)-3N-dihydroisoquinolin-2(1H)-yl)-2-hydroxypropyl)-2-(cyclohexylamino)isonicotinamide]	500 to 5000 nM	50 to 500 nM	A (a Ki ratio greater than or equal to 10 fold between the Ki in the presence of SAM and the Ki in the presence of MTA)	≥ 10000 nM	C* (an IC50 ratio of less than 3 fold between the IC50 in the HAP1 MTAP-intact cell line and the HAP1 MTAP-deleted cell line)	≥ 10000 nM	50 to 500 nM	–	–
Cc1ncoc1COc1ccc2c(c1Br)CCN(C[C@@H](O)CNC(=O)c1cc(NC3CCCC3)ncn1)C2 [Compound 358, (S)—N-(3-(5-bromo-6-((4-methyloxazol-5-yl)methoxy)-3,4-dihydroisoquinolin-2(1H)-yl)-2-hydroxypropyl)-6-(cyclopentylamino)pyrimidine-4-carboxamide]	≥ 5000 nM	500 to 5000 nM	A (a Ki ratio greater than or equal to 10 fold between the Ki in the presence of SAM and the Ki in the presence of MTA)	≥ 10000 nM	C* (an IC50 ratio of less than 3 fold between the IC50 in the HAP1 MTAP-intact cell line and the HAP1 MTAP-deleted cell line)	≥ 10000 nM	500 to 5000 nM	–	–
Cc1ncoc1COc1ccc2c(c1C)CCN(C[C@@H](O)CNC(=O)c1cc(NC3COC3)nc(N3CCN(C)CC3)n1)C2 [Compound 456, N-[(2S)-2-hydroxy-3-{5-methyl-6-[(4-methyl-1,3-oxazol-5-yl)methoxy]-1,2,3,4-tetrahydroisoquinolin-2-yl}propyl]-2-(4-methylpiperazin-1-yl)-6-[(oxetan-3-yl)amino]pyrimidine-4-carboxamide]	–	50 to 500 nM	–	1000 to 10000 nM	C* (an IC50 ratio of less than 3 fold between the IC50 in the HAP1 MTAP-intact cell line and the HAP1 MTAP-deleted cell line)	≥ 10000 nM	50 to 500 nM	≥ 5000 nM	A (a Ki ratio greater than or equal to 10 fold between the Ki in the presence of SAM and the Ki in the presence of MTA)
Cc1ncoc1COc1ccc2c(c1)CCN(C[C@@H](O)CNC(=O)c1ccnc(NC3CC4(CC4)C3)c1)C2 [Compound 621, (S)—N-(2-hydroxy-3-(6-((4-methyloxazol-5-yl)methoxy)-3,4-dihydroisoquinolin-2(1H)-yl)propyl)-2-(spiro[2.3]hexan-5-ylamino)isonicotinamide]	–	50 to 500 nM	–	< 1000 nM	B* (an IC50 ratio greater than or equal to 3 fold but lower than 10 fold between the IC50 in the HAP1 MTAP-intact cell line and the HAP1 MTAP-deleted cell line)	< 1000 nM	50 to 500 nM	500 to 5000 nM	A (a Ki ratio greater than or equal to 10 fold between the Ki in the presence of SAM and the Ki in the presence of MTA)
Cn1nccc1COc1ccc2c(c1Cl)CCN(C[C@@H](O)CNC(=O)c1ccnc(NC3CCCC3)c1)C2 [Compound 275, (S)—N-(3-(5-chloro-6-((1-methyl-1H-pyrazol-5-yl)methoxy)-3,4-dihydroisoquinolin-2(1H)-yl)-2-hydroxypropyl)-2-(cyclopentylamino)isonicotinamide]	≥ 5000 nM	500 to 5000 nM	A (a Ki ratio greater than or equal to 10 fold between the Ki in the presence of SAM and the Ki in the presence of MTA)	≥ 10000 nM	C* (an IC50 ratio of less than 3 fold between the IC50 in the HAP1 MTAP-intact cell line and the HAP1 MTAP-deleted cell line)	≥ 10000 nM	500 to 5000 nM	–	–
CC(=O)N1CCC(Nc2cc(C(=O)NC[C@H](O)CN3CCc4c(ccc(OCc5conc5C)c4C)C3)ncn2)CC1 [Compound 264, (S)-6-((1-acetylpiperidin-4-yl)amino)-N-(2-hydroxy-3-(5-methyl-6-((3-methylisoxazol-4-yl)methoxy)-3N-dihydroisoquinolin-2(1H)-yl)propyl)pyrimidine-4-carboxamide]	≥ 5000 nM	50 to 500 nM	A (a Ki ratio greater than or equal to 10 fold between the Ki in the presence of SAM and the Ki in the presence of MTA)	≥ 10000 nM	C* (an IC50 ratio of less than 3 fold between the IC50 in the HAP1 MTAP-intact cell line and the HAP1 MTAP-deleted cell line)	≥ 10000 nM	500 to 5000 nM	–	–
CC(=O)N1CCC(Nc2cc(C(=O)NC[C@H](O)CN3CCc4c(ccc(OCc5ocnc5C)c4C)C3)cc(N3CCN(C)CC3)n2)CC1 [Compound 593]	–	50 to 500 nM	–	1000 to 10000 nM	B* (an IC50 ratio greater than or equal to 3 fold but lower than 10 fold between the IC50 in the HAP1 MTAP-intact cell line and the HAP1 MTAP-deleted cell line)	≥ 10000 nM	50 to 500 nM	500 to 5000 nM	A (a Ki ratio greater than or equal to 10 fold between the Ki in the presence of SAM and the Ki in the presence of MTA)
O=C(NC[C@H](O)CN1CCc2cc(OCc3cnco3)ccc2C1)c1ccc2c(c1)CCN(C(=O)c1ccc(Br)cc1)C2 [Compound 561]	–	50 to 500 nM	–	1000 to 10000 nM	B* (an IC50 ratio greater than or equal to 3 fold but lower than 10 fold between the IC50 in the HAP1 MTAP-intact cell line and the HAP1 MTAP-deleted cell line)	≥ 10000 nM	50 to 500 nM	500 to 5000 nM	A (a Ki ratio greater than or equal to 10 fold between the Ki in the presence of SAM and the Ki in the presence of MTA)
Cc1ncoc1COc1ccc2c(c1)CCN(C[C@@H](O)CNC(=O)c1cncc(NC3CCC3)c1)C2 [Compound 271, (S)-5-(cyclobutylamino)-N-(2-hydroxy-3-(6-((4-methyloxazol-5-yl)methoxy)-3N-dihydroisoquinolin-2(1H)-yl)propyl)nicotinamide]	500 to 5000 nM	50 to 500 nM	A (a Ki ratio greater than or equal to 10 fold between the Ki in the presence of SAM and the Ki in the presence of MTA)	< 1000 nM	C* (an IC50 ratio of less than 3 fold between the IC50 in the HAP1 MTAP-intact cell line and the HAP1 MTAP-deleted cell line)	< 1000 nM	50 to 500 nM	–	–
O=C(NC[C@H](O)CN1CCc2cc(OCc3cnco3)ccc2C1)c1cc(NC2CCCC2)ncn1 [Compound 372, (S)-6-(cyclopentylamino)-N-(2-hydroxy-3-(6-(oxazol-5-ylmethoxy)-3,4-dihydroisoquinolin-2(1H)-yl)propyl)pyrimidine-4-carboxamide]	≥ 5000 nM	50 to 500 nM	A (a Ki ratio greater than or equal to 10 fold between the Ki in the presence of SAM and the Ki in the presence of MTA)	< 1000 nM	C* (an IC50 ratio of less than 3 fold between the IC50 in the HAP1 MTAP-intact cell line and the HAP1 MTAP-deleted cell line)	< 1000 nM	500 to 5000 nM	–	–
COCCN(C)c1cc(C(=O)NC[C@H](O)CN2CCc3c(ccc(OCc4ocnc4C)c3C)C2)cc(NC2CCN(C(C)=O)CC2)n1 [Compound 592]	–	50 to 500 nM	–	< 1000 nM	A* (an IC50 ratio greater than or equal to 10 fold between the IC50 in the HAP1 MTAP-intact cell line and the HAP1 MTAP-deleted cell line)	≥ 10000 nM	50 to 500 nM	500 to 5000 nM	A (a Ki ratio greater than or equal to 10 fold between the Ki in the presence of SAM and the Ki in the presence of MTA)
CC(=O)N1CCC(Nc2cc(C(=O)NC[C@H](O)CN3CCc4c(C)c(OCc5ocnc5C)cc(F)c4C3)ncn2)CC1 [Compound 618, 6-[(1-acetyl-4-piperidyl)amino]-N-[(2S)-3-[8-fluoro-5-methyl-6-[(4-methyloxazol-5-yl)methoxy]-3,4-dihydro-1H-isoquinolin-2-yl]-2-hydroxy-propyl]pyrimidine-4-carboxamide]	–	50 to 500 nM	–	1000 to 10000 nM	B* (an IC50 ratio greater than or equal to 3 fold but lower than 10 fold between the IC50 in the HAP1 MTAP-intact cell line and the HAP1 MTAP-deleted cell line)	≥ 10000 nM	50 to 500 nM	500 to 5000 nM	–
CC(=O)N1CCC(Nc2cc(C(=O)NC[C@H](O)CN3CCc4cc(OCc5cnnn5C)ccc4C3)ncn2)CC1 [Compound 250, (S)-6-((1-acetylpiperidin-4-yl)amino)-N-(2-hydroxy-3-(6-((1-methyl-1H-1,2,3-triazol-5-yl)methoxy)-3,4-dihydroisoquinolin-2(1H)-yl)propyl)pyrimidine-4-carboxamide]	≥ 5000 nM	500 to 5000 nM	A (a Ki ratio greater than or equal to 10 fold between the Ki in the presence of SAM and the Ki in the presence of MTA)	≥ 10000 nM	C* (an IC50 ratio of less than 3 fold between the IC50 in the HAP1 MTAP-intact cell line and the HAP1 MTAP-deleted cell line)	≥ 10000 nM	500 to 5000 nM	–	–
